Source: US12584904B2, “Methods for monitoring physiological status of a body organ” (BioCrine AB, priority 2012, dated 2026)
“Also recorded” adds a separate entry of the source.

Tests used:
ob/ob mice [1] = experiment: Intraperitoneal glucose tolerance test after leptin treatment; assay type: in vivo, mouse
Experimental: (§1) Having witnessed the behavior of individual islets in response to food over-consumption and insulin resistance, we next questioned if this growth could be refrained or even reversed by treating the ob/ob mice with leptin. Mice were injected intraperitoneally every day between 3 and 4 months of age. The physiological effects of this treatment were monitored regularly using different parameters.
(§2) Body weight and blood glucose levels were measured in a minimum of 7 mice. Glucose concentrations were obtained using Accu-Chek™ Aviva monitoring system (Roche). Glucose tolerance tests were performed by intraperitoneal injection of 2 mg glucose per gram body weight in mice fasted for 16 hours (n≥5). Plasma insulin concentrations from a minimum of 3 mice per condition were measured using mouse insulin ELISA plates (Mercodia). Leptin treatment was performed by daily intraperitoneal injections of 1.5 μg/g body weight of recombinant human leptin (Amylin Pharmaceuticals), and sham treatment was performed by intraperitoneal injection of water instead of leptin.

[2] = test system: islet grafts in the anterior chamber of the eye of ob/ob mice; experiment: Longitudinal in vivo confocal imaging of intraocular islet grafts under leptin treatment; parameters: species or system mouse
Excerpt: (§3) Islet grafts in mice were imaged in vivo at specific time points after transplantation. We used an upright laser scanning confocal microscope based on TCS-SP2-AOBS (Leica) with a long-distance water-dipping objective (Leica HXC-APO 10×/0.30NA), and a custom-built stereotaxic head holder allowing to position the mouse eye containing the engrafted islets towards the objective. Viscotears (Novartis) was used as immersion liquid between the eye and the objective, and isoflurane was used to anesthetize the mice during in vivo imaging. Imaging of islet morphology was done by laser illumination at 633 nm, and collection of backscattered light at the same wavelength.
Islets were isolated from female donor mice and transplanted into the anterior chamber of the eye of male recipients, using a previously described technique (2). We anesthetized mice using isoflurane (Baxter), and approximately 10-20 islets were transplanted into the anterior chamber of the mouse eye. Islets used for transplantation were selected to be of similar size for each experiment, independent of the mouse genotype. The mice were injected subcutaneously with Temgesic™ (Schering-Plough) for postoperative analgesia.
as §3, with “transplantation as previously described (2).” for “transplantation.”, “Viscotears™” for “Viscotears”, “wavelength. For visualization of blood vessels we injected 100 μl of a solution containing 2.5 mg/ml of 500 kDa FITC-labeled dextran (Invitrogen) into the tail vein, and imaged fluorescence using 496 nm excitation wavelength. Scanning speed and laser intensities were adjusted to avoid any cellular damage to the mouse eye or islet graft.” for “wavelength.”
AutoQuant X2 (Media Cybernetics) was used for blind deconvolution of all in vivo confocal images before image analysis. Islet volume was analyzed based on the backscatter signal channel, using Matlab™ and the Image Processing Toolbox (Mathworks). The islet “equatorial volume”, i.e. the volume from the top of the islet down to the calculated equator, was used to represent the volume and calculate islet growth. We analyzed a minimum of 3 islet grafts per animal to determine islet growth, with a minimum of 3 mice per category. Individual vessel segments were identified at different imaging time points and their diameter measured using Volocity™ (Perkin Elmer). We established image analysis protocols in Volocity™ for automated analysis of histological sections. The average beta cell section area was obtained by dividing the insulin-stained area by the total number of DAPI-stained nuclei enclosed in this area (minimum of 1000 cells per tissue). Beta cell proliferation rate was obtained by counting Ki67-positive nuclei and dividing by the total number of DAPI-stained nuclei in insulin-positive cells (minimum of 10000 cells per transplanted eye or pancreas). Volocity™ was used for image display and Photoshop CS5 (Adobe) for image assembly.

ob/ob mice [3] = experiment: Physiological measurements during leptin treatment of ob/ob mice; assay type: in vivo, mouse
Experimental: as §1
Leptin treatment was performed by daily intraperitoneal injections of 1.5 μg/g body weight of recombinant human leptin (Amylin Pharmaceuticals), and sham treatment was performed by intraperitoneal injection of water instead of leptin.
as §2

[4] = test system: beta cells of ob/ob mouse islets; experiment: Immunohistochemistry of transplanted eye and pancreas sections after leptin treatment; assay type: in vivo; details: for proliferation of beta cells (insulin and Ki67 staining): end of leptin treatment
Experimental: Dissected tissues were briefly rinsed with PBS, fixed for 48 h at room temperature using formalin, and dehydrated and embedded in paraffin. Five-micron thick sections mounted on precoated microscope slides were dewaxed by xylene and progressively rehydrated before processing. Insulin was stained using chicken anti-insulin (1:200 dilution, Abcam) followed by goat anti-chicken Alexa™ 488 (1:1000 dilution, Invitrogen) antibodies; blood vessels were stained using rat anti-mouse CD31 (1:50 dilution, BD Pharmingen), followed by incubation of biotinylated goat anti-rat (5 μg/ml, Vector Labs) and amplification with HRP-streptavidin/Alexa™ 647-tyramide (Invitrogen); proliferation was assessed by using mouse anti-human Ki67 (1:50 dilution, Novocastra) together with M.O.M. biotinylated anti-mouse IgG (Vector Labs), and amplified using HRP-streptavidin/Alexa 647-tyramide. Nuclei were stained and slides were preserved by cover glass mounting using ProLong™ Gold Antifade Reagent with DAPI (Invitrogen). Slides were imaged using a BD Pathway 855 system (BD Biosciences). Insulin, CD31, Ki67 and DAPI stainings were imaged using a 20×/0.75NA UApo/340 Olympus objective, and overviews of pancreatic sections stained by hematoxylin/eosin were obtained by montage capture mode using a 4×/0.16NA UPlan SApo Olympus objective.
AutoQuant X2 (Media Cybernetics) was used for blind deconvolution of all in vivo confocal images before image analysis. Islet volume was analyzed based on the backscatter signal channel, using Matlab™ and the Image Processing Toolbox (Mathworks). The islet “equatorial volume”, i.e. the volume from the top of the islet down to the calculated equator, was used to represent the volume and calculate islet growth. We analyzed a minimum of 3 islet grafts per animal to determine islet growth, with a minimum of 3 mice per category. Individual vessel segments were identified at different imaging time points and their diameter measured using Volocity™ (Perkin Elmer). We established image analysis protocols in Volocity™ for automated analysis of histological sections. […]

[5] = daily i.p. leptin 1.5 μg/g, during treatment

Substance: leptin: recombinant human leptin (Amylin Pharmaceuticals), hormone encoded by the ob gene
- glucose handling in intraperitoneal glucose tolerance test (glucose excursions, AUC) (ob/ob mice [1]; ob/ob mice at end of treatment period, 2 mg glucose/g i.p., 16 h fasted): normalized; also recorded: glucose excursions similar to those obtained from age-matched control mice
- insulin sensitivity (ob/ob mice [1]; ob/ob mice, end of leptin treatment): beneficial impact
- islet growth after the end of treatment ([2]; ob/ob mice, after end of leptin or sham treatment): no difference in islet growth
- islet growth (islet volume) of islet transplants ([2]; ob/ob mice, during leptin treatment versus sham treatment): reversal of islet growth; also recorded: abolished and partially reversed
- angiogenesis in the islet grafts ([2]; ob/ob mice, early stage after leptin treatment): could observe angiogenesis
- vessel diameter in islet grafts ([2]; ob/ob mice, leptin treatment, dextran-FITC imaging): rapid effect on blood vessel diameters; also recorded: decrease
- granulation of islet cells (reflective optical properties, backscatter) ([2]; transplanted islets in leptin-treated ob/ob mice): regranulation
- body weight after the end of the treatment period (ob/ob mice [3]; after end of leptin treatment, mass similar to untreated ob/ob about one month later): rapidly increased
- body weight (ob/ob mice [3]; daily i.p. leptin 1.5 μg/g between 3 and 4 months of age, during treatment): decrease
- blood glucose (ob/ob mice [3]; [5]): decrease
- insulin concentrations (plasma) (ob/ob mice [3]; [5]): decrease
- appetite (ob/ob mice [3]; daily i.p. leptin, during treatment): visibly reduced
- proliferation of beta cells (insulin and Ki67 staining) ([4]; engrafted islets (transplanted eye)): attenuated; also recorded: virtually abolished
- average beta cell size ([4]; following leptin treatment, transplanted or endogenous pancreatic islets, versus age-matched untreated control mice): no significant difference compared to age-matched untreated control mice
- proliferation of beta cells (insulin and Ki67 staining) ([4]; in situ pancreatic islets): attenuated; also recorded: virtually abolished
